Results as given in patent publication US7893271B2, “Benzimidazole carbamates and (thio) carbamates, and the synthesis and use thereof” (Intervet International B.V., priority 2005, dated 2011).
≈ marks a conversion by molar mass, not a printed value. Where “and” joins values, the source holds several entries; their conditions need not be identical. Equal entries are not always repeated. Where two headings read alike, the source gives them in different places.

Experiments:
[1] = in water; literature; cited from earlier work
[2] = solubility in water of compounds of the invention
[3] = reported; cited from earlier work
Haemonchus contortus = experiment: anthelmintic efficacy in animals experimentally infected with Haemonchus contortus; assay type: in vivo, Meriones unguiculatus
Method: (§1) The compounds were tested at doses of 3 mg/kg bodyweight (BW), 1 mg/kg BW and 0.3 mg/kg BW.
The animals were orally infected with L3-larvae of H. contortus. On D 10 post infectionem (PI) animals were treated once IP, SC or PO with the test compounds in 10% DMF/90% water at doses of 3.0 mg/kg BW, 1.0 mg/kg BW or 0.3 mg/kg BW. Three days after treatment animals were necropsied and larvae burden in stomachs was determined. Efficacy was defined as the reduction of the mean larvae count (geometric mean) in the treatment groups in comparison to the control group. The dose-response relationship was investigated by calculating Pearson's coefficient of correlation.

T. axei = experiment: anthelmintic efficacy in animals experimentally infected with Trichostrongylus axei; assay type: in vivo, Meriones unguiculatus
Method: as §1
(§2) The animals were orally infected L3-larvae of each T. axei and T. colubriformis. On D 19 post infectionem (PI) animals were treated once IP, SC or PO with the test compounds in 10% DMF/90% water a dose of 3 mg/kg BW, 1 mg/kg BW or 0.3 mg/kg BW. Three days after treatment animals were necropsied and worm burden in stomach and small intestine was determined. Efficacy was defined as the reduction of the mean worm count (geometric mean) in the treatment groups in comparison to the control group. The dose-response relationship was investigated by calculating Pearson's coefficient of correlation.

T. colubriformis = experiment: anthelmintic efficacy in animals experimentally infected with T. colubriformis; assay type: in vivo, Meriones unguiculatus
Method: as §1, §2

[4] = tested on: Ascaridia galli (intestinal roundworm of chicken), larval stage 3 (L3); experiment: in vitro larval assay, minimum effective concentration; assay type: cell-based; details: day 5, 20 larvae per well, microscopic examination
Method: (§3) Anthelmintic effects of the compounds of the present invention were tested in vitro using gut welling larval stages of two parasitic nematode species: Ascaridia galli (intestinal roundworm of chicken), larval stage 3 (L3), and Oesophagostomum dentatum (nodular worm of swine), larval stages 3 and 4 (L3; LA).
(§4) Principle of the assays: Various concentrations of compounds were incubated in 96 well microtiter plates, in which parasites were then distributed at 20 larvae per well. The anthelmintic effects were classified at day 5 by microscopic examination assessing mortality, damage, motility, progression of development and neutral red uptake by the larvae in comparison to a DMSO-control and the standard anthelmintics fenbendazole. The anthelmintic effects were defined by the minimum effective concentration (MEC) as reflected in table 1.

[5] = tested on: Oesophagostomum dentatum (nodular worm of swine), larval stages 3 and 4; experiment: as above; assay type: cell-based; details: day 5, 20 larvae per well
Method: as §3, §4

[6] = 0.3 mg/kg BW once, IP (fenbendazole equivalent 0.3; Compound A 0.2 mg/kg)
[7] = 0.3 mg/kg BW once, PO (fenbendazole equivalent 0.3; Compound A 0.2 mg/kg)
[8] = 0.3 mg/kg BW once, SC (fenbendazole equivalent 0.3; Compound A 0.2 mg/kg)
[9] = 1 mg/kg BW once, IP (fenbendazole equivalent 1.0; Compound A 0.6 mg/kg)
[10] = 1 mg/kg BW once, PO (fenbendazole equivalent 1.0; Compound A 0.6 mg/kg)
[11] = 1 mg/kg BW once, SC (fenbendazole equivalent 1.0; Compound A 0.6 mg/kg)
[12] = 3 mg/kg BW once, IP (fenbendazole equivalent 3.0; Compound A 1.8 mg/kg)
[13] = 3 mg/kg BW once, PO (fenbendazole equivalent 3.0; Compound A 1.8 mg/kg)
[14] = 3 mg/kg BW once, SC (fenbendazole equivalent 3.0; Compound A 1.8 mg/kg)
[15] = 3 mg/kg BW once, IP (fenbendazole equivalent 3.0; Compound A 1.8 mg/kg), listed as Fenbendazole
[16] = 3 mg/kg BW once, PO (fenbendazole equivalent 3.0; Compound A 1.8 mg/kg), listed as Fenbendazole
[17] = 3 mg/kg BW once, SC (fenbendazole equivalent 3.0; Compound A 1.8 mg/kg), listed as Fenbendazole

Row | Compound | solubility [1] | Reduction worm number (%) H. contortus larvae (Haemonchus contortus; [6]) [%] | Reduction worm number (%) H. contortus larvae (Haemonchus contortus; [7]) [%] | Reduction worm number (%) H. contortus larvae (Haemonchus contortus; [8]) [%] | Reduction worm number (%) H. contortus larvae (Haemonchus contortus; [9]) [%] | Reduction worm number (%) H. contortus larvae (Haemonchus contortus; [10]) [%] | Reduction worm number (%) H. contortus larvae (Haemonchus contortus; [11]) [%] | Reduction worm number (%) H. contortus larvae (Haemonchus contortus; [12]) [%] | Reduction worm number (%) H. contortus larvae (Haemonchus contortus; [13]) [%] | Reduction worm number (%) H. contortus larvae (Haemonchus contortus; [14]) [%] | Reduction worm number (%) T. axei (T. axei; [6]) [%] | Reduction worm number (%) T. axei (T. axei; [7]) [%] | Reduction worm number (%) T. axei (T. axei; [8]) [%] | Reduction worm number (%) T. axei (T. axei; [9]) [%] | Reduction worm number (%) T. axei (T. axei; [10]) [%] | Reduction worm number (%) T. axei (T. axei; [11]) [%] | Reduction worm number (%) T. axei (T. axei; [12]) [%] | Reduction worm number (%) T. axei (T. axei; [13]) [%] | Reduction worm number (%) T. axei (T. axei; [14]) [%] | Reduction worm number (%) T. colubriformis (T. colubriformis; [6]) [%] | further results
1 | COc1ccc2[nH]c([S+]([O-])Cc3ncc(C)c(OC)c3C)nc2c1 (centres unmarked) [omeprazole] | 500 µg/mL (≈ 1450 µM) | – | – | – | – | – | – | – | – | – | – | – | – | – | – | – | – | – | – | – | –
2 | (5- and 6-phenylsulfanyl-1-phosphonooxymethyl-1(H)-benzoimidazol-2-yl)-carbamic acid methyl esters di-sodium salts | – | – | – | – | – | – | – | – | – | – | – | – | – | – | – | – | – | – | – | – | solubility in water [2]: 132 mM and 67 g/L
3 | CCCSc1ccc([N+](=O)[O-])c(N/C(=N/CCS(=O)(=O)O)NC(=O)OC)c1 [netobimin] | – | – | – | – | – | – | – | – | – | – | – | – | – | – | – | – | – | – | – | – | embryonal toxicity [3]: reported to cause embryonal toxicity
4 | COC(=O)Nc1nc2ccc(Sc3ccccc3)cc2[nH]1 [fenbendazole, reference compound] | lower than 0.05 μg/mL | 80.63 | 91.73 | 88.36 | 89.33 | 78.05 | 89.16 | 100.00 | 96.49 | 95.10 | −283.85 | −115.44 | 82.15 | 80.94 | 88.80 | 82.15 | 100 | 100 | 100 | 79.33 | Reduction worm number (%) T. axei (T. axei; [15]): 100.00%; Reduction worm number (%) T. axei (T. axei; [16]): 100.00%; Reduction worm number (%) T. axei (T. axei; [17]): 100.00%; Reduction worm number (%) T. colubriformis (T. colubriformis; [7]): 68.75%; Reduction worm number (%) T. colubriformis (T. colubriformis; [8]): 43.18%; Reduction worm number (%) T. colubriformis (T. colubriformis; [9]): 80.04%; Reduction worm number (%) T. colubriformis (T. colubriformis; [10]): 80.04%; Reduction worm number (%) T. colubriformis (T. colubriformis; [11]): 81.10%; Reduction worm number (%) T. colubriformis (T. colubriformis; [12]): 100%; Reduction worm number (%) T. colubriformis (T. colubriformis; [15]): 100.00%; Reduction worm number (%) T. colubriformis (T. colubriformis; [13]): 100%; Reduction worm number (%) T. colubriformis (T. colubriformis; [16]): 100.00%; Reduction worm number (%) T. colubriformis (T. colubriformis; [14]): 100%; Reduction worm number (%) T. colubriformis (T. colubriformis; [17]): 100.00%; Minimum effective concentrations A. galli (L3) [4]: 0.050 µM; Minimum effective concentrations O. dentatum (L3) ([5]; L3): 1.000 µM; Minimum effective concentrations O. dentatum (L4) ([5]; L4): 0.025 µM
5 | CCCSc1ccc2c(c1)nc(NC(=O)OC)n2COP(=O)([O-])[O-].[Na+].[Na+] [(1-phosphonooxymethyl-5- and 6-propylsulfanyl-1(H)-benzoimidazol-2-yl)-carbamic acid methyl esters] | – | – | – | – | – | – | – | – | – | – | – | – | – | – | – | – | – | – | – | – | solubility ([2]; water): ≥ 50 mM
6 | (5- and 6-phenylsulfanyl-1-phosphonooxymethyl-1(H)-benzoimidazol-2-yl)-carbamic acid methyl esters [Compound A] | – | 65.02 | 87.00 | 47.40 | 90.65 | 88.62 | 87.61 | 93.81 | 90.81 | 94.84 | 69.66 | 59.20 | −43.64 | 83.98 | 96.71 | 82.98 | 100.00 | 98.00 | 100.00 | −50.17 | overall efficacy compared with fenbendazole (Haemonchus contortus; H. contortus, all doses and routes): same efficacy as treatment with fenbendazole; Reduction worm number (%) T. axei (T. axei; 0.3 mg/kg BW once, SC (fenbendazole equivalent 0.3; Compound A 0.2 mg/kg), listed as compound A): 43.64%; Reduction worm number (%) T. axei (T. axei; 3 mg/kg BW once, IP (fenbendazole equivalent 3.0; Compound A 1.8 mg/kg), listed as compound A): 100%; Reduction worm number (%) T. axei (T. axei; 3 mg/kg BW once, SC (fenbendazole equivalent 3.0; Compound A 1.8 mg/kg), listed as compound A): 100%; overall efficacy compared with fenbendazole (T. axei; T. axei, all doses and routes): same efficacy as treatment with fenbendazole; Reduction worm number (%) T. colubriformis (T. colubriformis; [7]): −3.71%; Reduction worm number (%) T. colubriformis (T. colubriformis; [8]): −106.50%; Reduction worm number (%) T. colubriformis (T. colubriformis; [9]): 28.18%; Reduction worm number (%) T. colubriformis (T. colubriformis; [10]): 37.27%; Reduction worm number (%) T. colubriformis (T. colubriformis; [11]): 68.61%; Reduction worm number (%) T. colubriformis (T. colubriformis; [12]): 93.26%; Reduction worm number (%) T. colubriformis (T. colubriformis; [13]): 100.00%; Reduction worm number (%) T. colubriformis (T. colubriformis; [14]): 85.70%; overall efficacy compared with fenbendazole (T. colubriformis; T. colubriformis, all doses and routes): same efficacy as treatment with fenbendazole
